Measurements: PMC4941645, “Oxidative Stress Induced by Pt(IV) Pro-drugs Based on the Cisplatin Scaffold and Indole Carboxylic Acids in Axial Position” (Scientific Reports, 2016)

Columns and labels:
[1] = system: A549 lung carcinoma cells; experiment: cells; settings: for IC50: A549, 72 h, MTT, ± S.D.
Description: (§1) The cytotoxic activity of the complexes and of the uncoordinated ligands was evaluated by the MTT test on a panel of human tumor cell lines containing examples of pancreatic (BxPC3), colorectal (HCT-15), breast (MCF-7), cervical (A431), and lung (A549) cancers as well as of melanoma (A375). For comparison purposes, the cytotoxicity of cisplatin was evaluated under the same experimental conditions.
(§2) Cisplatin was dissolved in 0.9% NaCl solution.
(§3) Human breast (MCF-7), colon (HCT-15), lung (A549) and pancreatic (BxPC3) carcinoma cell lines together with melanoma (A375) cells were obtained from American Type Culture Collection (ATCC, Rockville, MD). The human ovarian cancer cell line 2008 and its cisplatin resistant variant, C13*, were kindly provided by Prof. G. Marverti (Department of Biomedical Science of Modena University, Italy). Human cervical carcinoma (A431) cells were kindly provided by Prof. F. Zunino (Division of Experimental Oncology B, Istituto Nazionale dei Tumori, Milan, Italy). Cell lines were maintained in the logarithmic phase at 37 °C in a 5% carbon dioxide atmosphere using the following culture media containing 10% fetal calf serum (Euroclone, Milan, Italy), antibiotics (50 units/mL penicillin and 50 μg/mL streptomycin) and 2 mM L-glutamine: (i) RPMI-1640 medium (Euroclone) for 2008, C13*, MCF-7, HCT-15, A431 and BxPC3 cells, (ii) F-12 HAM’S (Sigma Chemical Co.) for A549 cells, iii) DMEM (Sigma Chemical Co.) for A375 cells.
(§4) The growth inhibitory effect toward tumor cells was evaluated by means of the MTT assay. Briefly, (3–8) × 10^3 cells/well, dependent upon the growth characteristics of the cell line, were seeded in 96-well microplates in growth medium (100 μL). After 24 h, the medium was removed and replaced with fresh medium containing the compound to be studied at the appropriate concentration. Triplicate cultures were established for each treatment. After 24, 48, or 72 h, each well was treated with 10 μL of a 5 mg/mL MTT saline solution and, after 5 h of incubation, 100 μL of a sodium dodecylsulfate (SDS) solution in 0.01 M HCl was added. After an overnight incubation, cell growth inhibition was detected by measuring the absorbance of each well at 570 nm using a Bio-Rad 680 microplate reader. The mean absorbance for each drug dose was expressed as a percentage of the control, untreated well absorbance and plotted vs drug concentration. The IC50 values, the drug concentrations that decrease the mean absorbance at 570 nm to 50% of that of untreated control wells, were calculated from the dose–response curves with the four-parameter logistic model (4PL). The final value is the mean ± S.D. of at least three independent experiments performed in triplicate.

[2] = Log P octanol/water, shake flask method with ICP-MS; format: physicochemical; settings: n-octanol / 0.9% NaCl water, Pt by ICP-MS
Description: Partition coefficients (logP values) for octanol/water partition were determined in order to examine whether a correlation exists between lipophilicity and accumulation into cells. The log P values obtained (Table 3) give the trend in lipophilicity as mono indole acid complex < succinate complex < acetate complex < bis indole acid complex < benzoate complex for both the IAA and the IPA series.
The logP values of the Pt(IV) compounds were determined using the shake flask method. The respective Pt(IV) complex was dissolved in 0.9% NaCl (w/v) ultrapure water (presaturated with n-octanol). The solutions were sonicated and filtered to remove undissolved Pt(IV) compounds. The initial Pt concentrations were determined by ICP-MS. Subsequently, the Pt(IV) solutions were added to an equal volume of n-octanol (presaturated with 0.9% NaCl (w/v) ultrapure water). The heterogeneous mixtures were shaken vigorously for 30 min before centrifuging at 4000 rpm for 30 min to achieve phase separation. The final Pt concentration in the aqueous phase was determined again by ICP-MS. The logarithm of the ratio of Pt concentrations in the organic and aqueous phases was calculated to determine the logP values. All experiments were done in duplicate.

[3] = system: MCF-7 breast carcinoma cells; experiment: MTT cytotoxicity test, MCF-7; format: cell-based, human; settings: MCF-7, 72 h, ± S.D.
Description: as §1, §2, §3, §4

[4] = Stability in physiological saline by mass spectrometry; format: physicochemical; settings: 0.9% NaCl
Description: Ten indole carboxylic acid Pt(IV) complexes with IAA (indole-3-acetic acid, 1A–5A) and IPA (indole-3-propionic acid, 1P–5P) were synthesized and the structures are depicted in Fig. 3. The monocarboxylato complexes 1A and 1P were prepared by reacting oxoplatin, c,c,t-[Pt(NH3)2Cl2(OH)2], with 0.8 eq. of the activated NHS-ester of the corresponding indole carboxylic acid. The dicarboxylato complexes with two indole acids in axial position (2A and 2P) were obtained using an excess of the NHS-ester activated acid (20 eq.), since the second hydroxo group of oxoplatin is much less reactive than the first one. The unsymmetrically substituted complexes (3A–5A and 3P–5P) were prepared by reaction of the monocarboxylate complexes 1A and 1P with the corresponding anhydrides. We chose three different anhydrides (benzoic, acetic and succinic anhydride) to vary the lipophilicity of the resulting Pt(IV) complexes. All the synthesized Pt(IV) complexes were characterized using elemental analysis, ESI-MS, FT-IR, ^1H and ^195Pt NMR spectroscopy. The purity of the complexes has been assessed through elemental analysis and–where solubility was not an issue–by high performance liquid chromatography (HPLC). The dicarboxylato complexes are poorly soluble in organic solvents. The proton NMR spectra of the complexes in DMSO-d6 show the typical signal of the NH3 protons which is a multiplet at around 6 ppm for the monocarboxylato complexes 1P and 1A (typical ^1JNH and ^2JPtH values around 50 Hz) while it is a broad signal around 6.5 ppm for the bis-substituted complexes (2–5A and 2–5P, Supplementary Information)[44]. The mass spectra of the complexes show a peak in the negative mode with the typical platinum isotope pattern corresponding to M − H^− or M + Cl^−. Stability studies on representative examples of the complexes (1A, 1P, 3A and 3P) via mass spectrometry confirm that the complexes are stable in physiological saline (0.9% NaCl) for at least 48 h (Supplementary Information).
Complexes 1A, 1P, 3A and 3P where dissolved in a minimum amount of DMF and diluted 1:20 with physiological saline (0.9% NaCl). Mass spectra were recorded at t = 0 and after 48 hours.

[5] = system: 2008 ovarian cancer cells; experiment: MTT cytotoxicity test, cisplatin-sensitive 2008; format: cell-based, human; settings: 2008 cisplatin-sensitive, 72 h, ± S.D.
Description: The cytotoxic properties of the complexes were also evaluated in a pair of tumor cell lines suitably selected for their sensitivity and resistance to cisplatin (adenocarcinoma cells 2008/C13^*). Cross-resistance profiles were evaluated by means of the resistance factor (RF), defined as the ratio between IC50 values calculated for the resistant cells and those obtained with the sensitive ones (Table 2). The phenomenon of cisplatin resistance is multifactorial in nature. Nevertheless, the main molecular mechanisms involved in drug resistance in C13* cancer cells have largely been identified. Indeed, in this cell line resistance is correlated to high cellular glutathione and thioredoxin reductase levels, reduced cellular drug uptake and enhanced repair of DNA damage. […] The RF values calculated for all derivatives were six- to nine-fold lower than that of cisplatin, clearly indicating the absence of cross-resistance.
as §2
Triplicate cultures were established for each treatment.

Row | SMILES | times more cytotoxic than cisplatin [1] | IC50 [1] [µM] | Log P (octanol/water) [2] | IC50 [3] [µM] | stable in physiological saline [4] | IC50 [5] [µM]
1 | [NH2][Pt]([NH2])([OH])([Cl])([Cl])[O]C(=O)Cc1c[nH]c2ccccc12 [Complex 1A] | four times | 3.62 ± 0.23 | −0.220 ± 0.04 | 3.62 ± 0.94 | at least 48 h | 2.89 ± 1.22
2 | [NH2][Pt]([NH2])([Cl])([Cl])([O]C(=O)CCC(=O)O)[O]C(=O)Cc1c[nH]c2ccccc12 [Complex 4A] |  | 18.1 ± 4.32 | −0.190 ± 0.06 | > 50 |  | > 50
3 | [NH2][Pt]([NH2])([OH])([Cl])([Cl])[O]C(=O)CCc1c[nH]c2ccccc12 [Complex 1P, cis,cis,trans-[Pt(NH3)2Cl2(IPA)(OH)]] | four times | 2.66 ± 0.54 | −0.110 ± 0.05 | 3.78 ± 0.16 | at least 48 h | 1.45 ± 0.37
4 | CC(=O)[O][Pt]([NH2])([NH2])([Cl])([Cl])[O]C(=O)Cc1c[nH]c2ccccc12 [Complex 5A] |  | 2.8 ± 0.09 | −0.130 ± 0.05 | 43.26 ± 0.22 |  | 41.2 ± 0.75
5 | [NH2][Pt]([NH2])([Cl])([Cl])([O]C(=O)Cc1c[nH]c2ccccc12)[O]C(=O)c1ccccc1 [Complex 3A] |  | 2.59 ± 0.13 | −0.037 ± 0.04 | 3.76 ± 0.76 | at least 48 h | 9.97 ± 3.18
